Values quoted from earlier work in paper PMC8227856, “Antibacterial Activity of a Promising Antibacterial Agent: 22-(4-(2-(4-Nitrophenyl-piperazin-1-yl)-acetyl)-piperazin-1-yl)-22-deoxypleuromutilin” (Molecules, 2021).

Parameters: method as in PMID 25812151
Details: mice, oral acute toxicity; cited from earlier work

## C=C[C@]1(C)C[C@@H](OC(=O)CSc2nnc(N)s2)[C@]2(C)[C@H](C)CC[C@]3(CCC(=O)[C@H]32)[C@@H](C)[C@@H]1O [ATTM, 14-O-[(2-Amino-1,3,4-thiadiazol-5-yl)Thioacetyl] Mutilin]
  LD50: 2304.4 mg/kg
